Assay results as given in patent publication US11628168B2, “Medical application of pyrimidine sulfonamides derivatives” (CHINESE PLA GENERAL HOSPITAL, priority 2018, dated 2023).

Key:
Type in all cases: in vivo, SD rats
[1] = system: right ventricular function of rats in low-pressure low-oxygen cabin; assay: Echocardiography of rats in low-pressure low-oxygen cabin (simulated altitude 5,500 m); details: x±s
Experimental: (§1) 40 healthy SD rats (180-220 g, male) are purchased from Beijing Vital River Laboratory Animal Technology Co. Ltd, belong to the SPF grade and have the license number of SCXK(Jing)2016-0006. The healthy SD rats are fed in a low-pressure oxygen cabin, and regularly fed with a complete nutritional feed under the conditions of the temperature of 22 to 25° C. and the humidity of 30% to 50%.
(§2) Solvent configuration: 5% of DMSO and 95% of normal saline with 10% of HP-β-CD, and pH=9.
(§3) An experimental group A: a low-pressure low-oxygen cabin, and intragastric administration of sc0062 (15 mg/kg) as well as a solvent
(§4) An experimental group B: a low-pressure low-oxygen cabin, and intragastric administration of sc0062 (30 mg/kg) as well as a solvent
(§5) 40 rats are randomly divided into four groups, each group includes 10 rats, 3 groups are placed into a low-pressure low-oxygen cabin, the pressure of the oxygen cabin is regulated to 380 mmHg, a high altitude environment with an altitude of 5,500 meters is simulated, the low-pressure low-oxygen cabin is opened for 1 hour every day so as to add foods and water for animals and carry out corresponding medicine treatment, and meanwhile, the environment where the rats are positioned are kept alternate day and night according to a ratio of 12 h:12 h. After 3 groups of rats are in the oxygen-poor environment for 14 days, intragastric administration is respectively carried out on the 3 groups of rats, the solvent (the model group), the sc0062 (15 mg/kg) and the solvent (the experimental group A) and the sc0062 (30 mg/kg) and the solvent (the experimental group B) are respectively applied to the 3 groups of rats, and the operation is continued for 14 days. Rats in the fourth group (the blank control group) are placed in the same room to be fed in the normal-pressure normal-oxygen environment.
(§6) 3% pentobarbital sodium (0.2 mL/100 g) is intraperitoneally injected to anesthetize the rats, ultrasonic detection is carried out, and the following ultrasonic data is recorded: PAT/PET (pulmonary arterial blood flow acceleration time/right ventricular […]); right ventricular ejection fraction EF; a right ventricular fractional shortening FS; and tricuspid annular plane systolic excursion TAPSE. The anesthetize rats are fixed on an operating table in a supine position mode, tracheotomy is carried out, a breathing machine is connected, and thoracotomy is carried out to expose the hearts. A catheter is inserted into each right ventricle, and the right ventricular systolic pressure is recorded. Then each catheter is slowly pushed forwards, can reach a corresponding pulmonary artery through a corresponding right ventricular outflow tract, the pressure waveform of a monitor is observed, and the mean pulmonary arterial pressure mPAP is recorded. Blood is collected and the rats are executed. The hearts and the lung tissue are taken out, the atrial tissue and the root of the main artery are removed, left and right ventricles are separated, bloodstain is washed out in PBS, moisture is sucked up by filter paper, and the weight of the right ventricles (RV) and the weight of the left ventricles and the […] (LV+IS) are respectively weighed. Calculation is carried out according to the following formula: right ventricular hypertrophy index=RV/(LV+IS).
(§7) All the data is represented by x±s, comparison among the groups is single factor analysis of variance, when P<0.05, it represents that the difference has a statistical significance, and statistical treatment is carried out by adopting an SPSS 22.0 software package.

[2] = system: pulmonary arterial hypertension of model rats; assay: Rat haemodynamics: mean pulmonary arterial pressure by right heart catheter, low-pressure low-oxygen model; details: for mPVP: x±s
Experimental: as §1, §2, §3, §4
40 rats are randomly divided into four groups, each group includes 10 rats, 3 groups are placed into a low-pressure low-oxygen cabin, the pressure of the oxygen cabin is regulated to 380 mmHg, a high altitude environment with an altitude of 5,500 meters is simulated, the low-pressure low-oxygen cabin is opened for 1 hour every day so as to add foods and water for animals and carry out corresponding medicine treatment, and meanwhile, the environment where the rats are positioned are kept alternate day and night according to a ratio of 12 h:12 h. […]
3% pentobarbital sodium (0.2 mL/100 g) is intraperitoneally injected to anesthetize the rats, ultrasonic detection is carried out, and the following ultrasonic data is recorded: PAT/PET (pulmonary arterial blood flow acceleration time/right ventricular […]); right ventricular ejection fraction EF; a right ventricular fractional shortening FS; and tricuspid annular plane systolic excursion TAPSE. […] A catheter is inserted into each right ventricle, and the right ventricular systolic pressure is recorded. Then each catheter is slowly pushed forwards, can reach a corresponding pulmonary artery through a corresponding right ventricular outflow tract, the pressure waveform of a monitor is observed, and the mean pulmonary arterial pressure mPAP is recorded. […]

[3] = system: right ventricular hypertrophy of rats in low-pressure low-oxygen cabin; assay: Rat right ventricular hypertrophy index, low-pressure low-oxygen model; details: for Full heart / RV (weight of the right ventricles) / RV/(LV + IS) right ventricular hypertrophy index: x±s
Experimental: as §1, §2, §3, §4, §5, §6, §7

[4] = 15 mg/kg intragastric for 14 days after 14 days hypoxia (380 mmHg)
[5] = 30 mg/kg intragastric for 14 days after 14 days hypoxia (380 mmHg)

COCCNS(=O)(=O)Nc1ncnc(OCCOc2ncc(Br)cn2)c1-c1ccc2c(c1)OCO2 [sc0062]
PAT/PET [1, 4]: 0.39 ± 0.07
Right ventricular EF [1, 4]: 67.25 ± 13.01
Right ventricular FS [1, 4]: 37.02 ± 10.63
TAPSE [1, 4]: 2.05 ± 0.29
PAT/PET [1, 5]: 0.40 ± 0.07
Right ventricular EF [1, 5]: 71.32 ± 9.35
Right ventricular FS [1, 5]: 39.76 ± 7.24
TAPSE [1, 5]: 1.93 ± 0.44
mPVP [2, 4]: 31.39 ± 3.90
mPVP [2, 5]: 26.91 ± 4.35
mean pulmonary arterial pressure compared with the model group ([2]; experimental groups A and B (15 and 30 mg/kg), p<0.01): significantly raised
Full heart [3, 4]: 1.47 ± 0.24
RV (weight of the right ventricles) [3, 4]: 0.56 ± 0.09
RV/(LV + IS) right ventricular hypertrophy index [3, 4]: 0.38 ± 0.02
Full heart [3, 5]: 1.30 ± 0.21
RV (weight of the right ventricles) [3, 5]: 0.48 ± 0.11
RV/(LV + IS) right ventricular hypertrophy index [3, 5]: 0.36 ± 0.02
right ventricular hypertrophy index compared with the model group ([3]; experimental groups A and B (15 and 30 mg/kg), p<0.05): reduced
